According to patent US20200009125A1, “Pharmaceutical Compositions For Poorly Water-Soluble Compounds” (ASCENDIA PHARMACEUTICALS, LLC, priority 2013, published 2020):
Converted amounts (≈) assume the structure as drawn.

What was measured:
[1] = cited from earlier work; for aqueous solubility in water: Source: Drugbank
[2] = cited from earlier work; for pKa: Source: Drugbank or FDA

Q: With `CC(C)Cc1ccc(C(C)C(=O)O)cc1` (centres unmarked) [Ibuprofen, ibuprofen] as the molecule, how does the “solubility of ibuprofen alone at pH 1.2” value ([1]; pH 1.2, drug alone, same figure as Drugbank water solubility) read?
A: The value was 0.021 mg/mL.

Q: Which pKa [2] does the source give for `COC(=O)[C@H](c1ccccc1Cl)N1CCc2sccc2C1` [Clopidogrel, clopidogrel] here?
A: The pKa was 4.5.

Q: And the solubility (physchem; aqueous solution at pH 1.2, pH 1.2, simulated gastric fluid)?
A: Its solubility is 5200 µg/mL (≈ 16200 µM).

Q: What about the solubility (physchem; aqueous solution at pH 6.8, pH 6.8, aqueous buffer) of the same molecule?
A: Its solubility is 14 µg/mL (≈ 43.5 µM).

Q: For `COc1ccc(-n2nc(C(N)=O)c3c2C(=O)N(c2ccc(N4CCCCC4=O)cc2)CC3)cc1` [Apixaban, apixaban], which “aqueous solubility in water” value [1] is on record?
A: The value was 40 to 50 µg/mL.

Q: And the “detectable pKa” value ([2]; within pH range of 0.0-10.0, Source: Drugbank)?
A: The value was “no detectable pKa”.

Q: With `CC(=O)Oc1cc2c(s1)CCN(C(C(=O)C1CC1)c1ccccc1F)C2` (centres unmarked) [Prasugrel, prasugrel] as the molecule, how does the “aqueous solubility in water” value [1] read?
A: Its value is 2.37 µg/mL (≈ 6.35 µM).

Q: And the pKa [2]?
A: The pKa was 5.48.

Q: For `O=C(O)Cc1ccccc1Nc1c(Cl)cccc1Cl` [Diclofenac, diclofenac], which “solubility in intestinal fluid of neutral pH” value ([1]; as sodium salt, intestinal fluid of neutral pH) is on record?
A: Its value is 1113 μg/mL.

Q: Which “solubility in gastric fluid” value ([1]; gastric fluid) does the source give for `CCC(C)n1ncn(-c2ccc(N3CCN(c4ccc(OCC5COC(Cn6cncn6)(c6ccc(Cl)cc6Cl)O5)cc4)CC3)cc2)c1=O` (centres unmarked) [itraconazole] here?
A: The value was 3500 µg/mL (≈ 4960 µM).

Q: And the “solubility in intestinal fluid” value ([1]; intestinal fluid)?
A: Its value is 0.2 µg/mL (≈ 0.283 µM).
